Laboratory results reported in patent US5223485A, “Anaphylatoxin-receptor ligands” (Abbott Laboratories, priority 1991, dated 1993).
Square brackets hold non-standard residues; d marks the D form. Peptide text beside a SMILES is read from it. * marks the point of attachment. NMe2Phe = CN(C)[C@@H](Cc1ccccc1)C(=O)*; NMeF = CN[C@@H](Cc1ccccc1)C(=O)O; Cha = N[C@@H](CC1CCCCC1)C(=O)O; NMeA = CN[C@@H](C)C(=O)O; dNMeA = CN[C@H](C)C(=O)O

What follows are compounds tested against T1, C5a Receptor (Homo sapiens, UniProt P21730) (assay: Anaphylatoxin receptor binding Ki determination: inhibition of 125I-C5a binding to PMNL membrane fragments). Details: 0.03-1 nM 125I-C5a, 2.5-25 μg/mL purified PMNL membrane fragments, filtration; read-out: In vitro C5a Receptor Binding Potency Ki.
T1 construct: 2.5-25 μg/mL of purified PMNL membrane fragments; from tissue; host or cells: polymorphonuclear leukocyte (PMNL) membrane fragments
T1 sequence (P21730 1-350): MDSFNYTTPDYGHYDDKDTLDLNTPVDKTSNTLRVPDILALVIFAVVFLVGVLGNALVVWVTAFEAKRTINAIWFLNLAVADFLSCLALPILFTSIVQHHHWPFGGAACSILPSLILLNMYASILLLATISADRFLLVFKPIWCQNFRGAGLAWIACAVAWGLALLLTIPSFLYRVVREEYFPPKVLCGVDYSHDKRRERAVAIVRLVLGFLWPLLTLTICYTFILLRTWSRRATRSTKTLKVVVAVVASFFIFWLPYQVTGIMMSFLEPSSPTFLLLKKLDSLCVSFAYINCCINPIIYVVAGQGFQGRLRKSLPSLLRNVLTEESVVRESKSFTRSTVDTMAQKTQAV
Description: Specific inhibition of C5a binding activity of representative compounds of the present invention was measured using 0.03-1 nM ^125 I-C5a with 2.5-25 μg/mL of purified PMNL membrane fragments (Borregaard, N.; Heiple, J. M.; Simons, E. R.; and Clark, R. A. J. Cell. Biol. 1983, 97, 52-61.). Free and membrane-bound ligand were separated by filtration.
Work on `CC(C)C[C@H](NC(=O)CNC(=O)[C@H](CC1CCCCC1)NC(=O)[C@H](C)N(C)C(=O)[C@H](CCCCN)NC(=O)[C@H](Cc1ccccc1)N(C)C)C(=O)N(C)[C@H](C)C(=O)N[C@@H](CCCNC(=N)N)C(=O)O` [Example 455, (N,N-di-Methyl)Phenylalanyl-Lysyl-(N-Methyl)Alanyl-{(2S)-2-Amino-3-cyclohexylpropanoyl}-Glycyl-Leucyl-(N-Methyl)DAlanyl-Arginyl-OH] (NMe2Phe-K[NMeA][Cha]GL[dNMeA]R-OH) yielded a Ki of 17 nM.
`CN[C@@H](Cc1ccccc1)C(=O)N[C@@H](CCCCN)C(=O)N[C@@H](CCCNC(=N)N)C(=O)N[C@@H](CCSC)C(=O)N[C@@H](CCC(N)=O)C(=O)N[C@@H](CC(C)C)C(=O)NCC(=O)N[C@@H](CCCNC(=N)N)C(=O)O` [Example 460, (N-Methyl)Phenylalanyl-Lysyl-Arginyl-Methionyl-Glutaminyl-Leucyl-Glycyl-Arginyl-OH] (H-[NMeF]KRMQLGR-OH) showed a Ki of 21 nM.
Work on “Ac-Histidyl-Lysyl-Aspartyl-{(2S)-2-Amino-3-cyclohexylpropanoyl}-{(2S)-2-Amino-3-cyclohexylpropanoyl}-Leucyl-Pipecolyl(±)-Arginyl-OH [Example 13]” yielded a Ki of 850 nM.
